According to EP2842557A1, “Mildronate in ophthalmic disorders” (SIGMA-TAU Industrie Farmaceutiche Riunite S.p.A., priority 2013, dated 2015):

Assays:
Type in all cases: in vivo, male Wistar rats
iNOS = iNOS expression by immunohistochemistry (confirmed by western blot of retina extracts)
Protocol: (§1) A group of 55 male Wistar rats, average weight 300-350 g, were housed in controlled light and temperature with unlimited access to food and water. 20 animals were submitted to intraocular injection of 0.5 mM, 2 mM, 3.5 mM, 5 mM mildronate, 15 µl in physiological solution, to standardize experimental conditions (data not shown). A group of 5 animals were submitted to intraocular injection of 2% methylcellulose (MTC), 15 µl in physiological solution. MTC is a molecule capable of mechanically blocking the outflow of aqueous humor leading to ocular hypertension.
(§2) Thirty animals were randomly separated into 3 experimental groups: rats from first group received mildronate 5 mM; rats from second group received mildronate 2 mM; rats from third group received mildronate 2 mM + L-carnitine 0.6 mM, 15 µl in physiological solution; all controlateral eyes were used as control.
(§3) After local anesthesia with 0.4% oxybuprocaine eye drops (Novesina™, Novartis, Basel, Switzerland) and after induction with ether, animal were injected in the posterior chamber of the right eye with solutions described above.
(§4) 24 hours after the intraocular injection, rats were given general anesthesia by intra-peritoneal injection of 500 pl sodium-thiopental solution (Farmotal™, Pharmacia & Upjohn, USA) in saline. They were then sacrificed by carotid bleeding and eyeballs were removed.
iNOS expression was detected with a rabbit polyclonal anti-iNOS antibody (Santa Cruz) (1:50), followed by a green fluorescent goat anti-rabbit IgG Alexa Fluor® (Molecular Probes) secondary antibody. […]
(§5) The observations were made under a fluorescence microscope and pictures taken by computerized image acquisition. […]

optic nerve and retina = test: Cellular morphology of optic nerve and retina sections after intraocular injection; conditions: 24 hours
Protocol: as §1, §2, §3
24 hours after the intraocular injection, rats were given general anesthesia by intra-peritoneal injection of 500 pl sodium-thiopental solution (Farmotal™, Pharmacia & Upjohn, USA) in saline. They were then sacrificed by carotid bleeding and eyeballs were removed. […]

Caspase-3 = Caspase-3 expression by immunohistochemistry (confirmed by western blot of retina extracts)
Protocol: as §1, §2, §3, §4
Caspase-3 expression was detected with a rabbit polyclonal anti-caspase-3 antibody (Santa Cruz) (1:100), followed by a green fluorescent goat anti-rabbit IgG Alexa Fluor® (Molecular Probes) secondary antibody. […]
as §5

[1] = system: RGCs and astrocytes cells of the optic nerve; test: TUNEL assay (DNA damage) on eye sections after intraocular injection; conditions: 24 hours
Protocol: as §1, with “hypertension. […]” for “hypertension.”
The sections (thickness of 10 µm), left to dry at room temperature for 30 min, were subjected to the following treatments: rehydration through a descending alcohol series (100°, 95°, 75°; 2 min each); incubation with protease 20 µg/mL in Triton X-100 to 0.1% at 37°C for 30 min; washes with 1X PBS for 2 min; incubation with TUNEL reagent (In Situ Cell Death Detection Kit, AP/ROCHE), containing 1/10 in volume of terminal deoxynucleotidyl transferase and the remaining fraction of nucleotides labeled with a fluorescent chromophore, 10 µl per section at 37°C for 1h. […] The observations were made under a fluorescence microscope and pictures were taken by computerized image acquisition.

SMILES: C[N+](C)(C)NCCC(=O)[O-] [mildronate, 3-(2,2,2-trimethylhydrazinium)propionate]
- iNOS expression (iNOS; 2 mM mildronate, optic nerve and retina, with respect to 5 mM mildronate-treated specimens): mild decrease of iNOS expression
- iNOS expression (iNOS; 5 mM mildronate, 24 hours, glial retinal cells and astrocytes of optic nerve, compared to control): high levels of iNOS
- NO levels and iNOS immunolocalization (iNOS; summary statement, dose not stated): increased NO levels and iNOS immunolocalization
- Cellular morphology of optic nerve (optic nerve and retina; mildronate 5 mM, 15 µl intraocular injection, vs control eye): fibers do not run longitudinally, the papilla shows an excavation
- Cellular morphology of retina (optic nerve and retina; mildronate treated animals, intraocular injection): picnotic and/or vacuolated nuclei and fragmented chromatin
- Caspase-3 expression (Caspase-3; 2 mM mildronate, optic nerve and retina): mild decrease of positivity
- Caspase-3 expression (Caspase-3; 5 mM mildronate, astrocytes and retinal cells): high caspase-3 levels
- Apoptosis of retinal ganglion cells and optic nerve astrocytes (Caspase-3; summary statement, 24 hours after treatment): showed apoptosis
- DNA damage (TUNEL fluorescence due to DNA fragmentation) ([1]; mildronate 2 mM): slight positive fluorescence
- DNA damage (TUNEL fluorescence due to DNA fragmentation) ([1]; mildronate 5 mM, RGCs and astrocytes of the optic nerve): strong fluorescence
